Measurements reported in patent US6228870A, “Oxazolidinones useful as alpha 1a adrenoceptor antagonists” (Merck & Co., Inc., priority 1999, dated 2001).

Tested on: human alpha 1b adrenergic receptor
Test: Selective Binding Assay, alpha 1b (competition with [125I]-HEAT)
Conditions: alpha 1a versus alpha 1b
Experimental: Membranes prepared from stably transfected human alpha 1d and alpha 1b cell lines (ATCC […] and CRL 11139, respectively) were used to identify compounds that selectively bind to the human alpha 1a adrenergic receptor. These competition binding) reactions (total volume=200 μl) contained 50 mM Tris-HCl pH. 7.4, 5 mM EDTA, 150 mM NaCl, 100 pM [^125 I]-HEAT, membranes prepared from cell lines transfected with the respective alpha 1 subtype expression plasmid and increasing amounts of unlabeled ligand. Reactions were incubated at room temperature for one hour with shaking. Reactions were filtered onto Whatman GF/C glass fiber filters with a Inotec 96 well cell harvester. Filters were washed three times with ice cold buffer and bound radioactivity was determined (Ki).

Compound | selectivity in binding to alpha 1a receptors versus alpha 1b receptors
COC[C@@H]1OC(=O)N(C(=O)NCCCN2CCC(c3ccc(F)cc3C#N)CC2)[C@H]1c1ccc(F)c(F)c1 [Example 13, (4S,5R)-4-(3,4-Difluorophenyl)-5-methoxymethyl-2-oxo-oxazolidine-3-carboxylic acid {3-[4-(2-cyano-4-fluorophenyl)piperidin-1-yl]propyl}amide] | about 453 fold
COC[C@@H]1OC(=O)N(C(=O)NCCCN2CCC(c3ccccc3C#N)CC2)[C@H]1c1ccc(F)c(F)c1 [Example 11, (4S,5R)-4-(3,4-Difluorophenyl)-5-methoxymethyl-2-oxo-oxazolidine-3-carboxylic acid {3-[4-(2-cyanophenyl)piperidin-1-yl]propyl}amide] | about 184 fold
